Results taken from US20230295200A1 (REGENTS OF THE UNIVERSITY OF MICHIGAN, priority 2022, published 2023).

Columns and labels:
[1] = molecular target: T1, STAT5A (Homo sapiens, UniProt P42229); experiment: Fluorescence polarization (FP) binding assay, STAT5A; conditions: FP competition, 5 nM fluorescein-labeled tracer, 200 nM protein, PBS pH7.4
T1 sequence (P42229 1-794): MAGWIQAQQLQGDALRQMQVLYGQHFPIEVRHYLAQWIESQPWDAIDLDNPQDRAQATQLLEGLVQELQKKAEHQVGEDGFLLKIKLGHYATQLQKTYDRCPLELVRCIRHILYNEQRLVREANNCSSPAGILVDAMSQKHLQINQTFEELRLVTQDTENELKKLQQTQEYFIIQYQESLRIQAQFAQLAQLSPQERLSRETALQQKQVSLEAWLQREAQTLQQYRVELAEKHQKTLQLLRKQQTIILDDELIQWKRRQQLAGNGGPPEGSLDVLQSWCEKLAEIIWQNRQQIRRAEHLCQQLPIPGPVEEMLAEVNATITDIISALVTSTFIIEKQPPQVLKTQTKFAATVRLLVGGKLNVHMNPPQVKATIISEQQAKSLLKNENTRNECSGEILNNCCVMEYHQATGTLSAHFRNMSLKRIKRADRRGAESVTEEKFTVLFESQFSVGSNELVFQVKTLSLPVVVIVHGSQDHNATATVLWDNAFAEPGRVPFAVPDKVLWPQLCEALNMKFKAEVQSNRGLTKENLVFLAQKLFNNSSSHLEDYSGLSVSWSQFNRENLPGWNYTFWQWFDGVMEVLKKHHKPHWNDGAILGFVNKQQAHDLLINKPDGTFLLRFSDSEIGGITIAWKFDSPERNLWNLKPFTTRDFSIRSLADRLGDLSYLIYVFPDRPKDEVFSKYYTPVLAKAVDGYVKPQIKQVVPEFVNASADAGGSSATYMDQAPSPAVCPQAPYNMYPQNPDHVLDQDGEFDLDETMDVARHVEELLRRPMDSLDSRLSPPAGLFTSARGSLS
Outline: (§1)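 Tracer (fluorescein-labeled, 5 nM) was mixed with 200 nM STAT5 and/or STAT6 in PBS pH 7.4 plus 0.01% BGG, 0.01% Tween-20, 2 mM DTT. After 15 min shaking and 1 h at room temperature to equilibrium, polarization was measured and constants derived by nonlinear fitting.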

[2] = molecular target: T2, STAT6 protein (Homo sapiens, UniProt P42226); experiment: Fluorescence polarization (FP) binding assay, STAT6; conditions: FP competition, 5 nM fluorescein-labeled tracer, 200 nM protein, PBS pH7.4; read-out: Binding STAT6
T2 sequence (P42226 1-847): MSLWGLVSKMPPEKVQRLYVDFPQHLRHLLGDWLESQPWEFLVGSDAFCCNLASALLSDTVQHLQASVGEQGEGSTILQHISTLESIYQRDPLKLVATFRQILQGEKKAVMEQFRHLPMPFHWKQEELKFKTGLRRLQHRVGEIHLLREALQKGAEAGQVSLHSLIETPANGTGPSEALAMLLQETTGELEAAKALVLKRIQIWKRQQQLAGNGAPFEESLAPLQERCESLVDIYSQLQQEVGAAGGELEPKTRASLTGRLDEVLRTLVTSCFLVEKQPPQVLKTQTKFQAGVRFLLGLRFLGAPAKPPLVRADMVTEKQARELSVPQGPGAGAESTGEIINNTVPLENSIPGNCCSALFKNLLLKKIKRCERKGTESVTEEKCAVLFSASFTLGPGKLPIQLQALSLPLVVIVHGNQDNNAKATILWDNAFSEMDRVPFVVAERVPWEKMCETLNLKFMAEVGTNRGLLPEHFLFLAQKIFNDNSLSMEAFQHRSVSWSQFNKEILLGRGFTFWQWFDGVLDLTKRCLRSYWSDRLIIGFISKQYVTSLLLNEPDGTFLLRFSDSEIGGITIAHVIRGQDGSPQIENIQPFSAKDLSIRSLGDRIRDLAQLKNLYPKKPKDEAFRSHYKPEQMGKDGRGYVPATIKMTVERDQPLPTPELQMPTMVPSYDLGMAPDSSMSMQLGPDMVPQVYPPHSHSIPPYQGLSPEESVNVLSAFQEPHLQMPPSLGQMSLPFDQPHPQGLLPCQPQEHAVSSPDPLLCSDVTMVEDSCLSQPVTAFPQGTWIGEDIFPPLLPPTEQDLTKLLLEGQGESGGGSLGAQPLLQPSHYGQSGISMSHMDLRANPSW
Outline: as §1

`CC(C)(C)[C@H](NC(=O)c1cc2cc(C(F)(F)P(=O)(O)O)ccc2s1)C(=O)N1CCC[C@H]1C(=O)N1CCC2(CCCCCC2)C1` [Compound 62, ((2-(((S)-1-((S)-2-(2-azaspiro[4.6]undecane-2-carbonyl)pyrrolidin-1-yl)-3,3-dimethyl-1-oxobutan-2-yl)carbamoyl)benzo[b]thiophen-5-yl)difluoromethyl)phosphonic acid] gave a Ki [1] greater than 10 µM and a Ki [2] of 1 to 10 µM.

`CC(C)(C)[C@H](NC(=O)c1cc2cc(C(F)(F)P(=O)(O)O)ccc2s1)C(=O)N1CCC[C@H]1C(=O)N1CCc2ccc(Cl)cc2C1` [Compound 68, ((2-(((S)-1-((S)-2-(7-chloro-1,2,3,4-tetrahydroisoquinoline-2-carbonyl)pyrrolidin-1-yl)-3,3-dimethyl-1-oxobutan-2-yl)carbamoyl)benzo[b]thiophen-5-yl)difluoromethyl)phosphonic acid] was tested, and the Ki [1] was greater than 10 µM and the Ki [2] was 1 to 10 µM.

`CC(C)(C)[C@H](NC(=O)c1cc2cc(C(F)(F)P(=O)(O)O)ccc2s1)C(=O)N1CCC[C@H]1C(=O)NC1(c2ccccc2)CC1` [Compound 71, ((2-(((S)-3,3-dimethyl-1-oxo-1-((S)-2-((1-phenylcyclopropyl)carbamoyl)pyrrolidin-1-yl)butan-2-yl)carbamoyl)benzo[b]thiophen-5-yl)difluoromethyl)phosphonic acid] showed a Ki [1] greater than 10 µM and a Ki [2] of 1 to 10 µM.

In the case of `CN(Cc1ccc(Cl)cc1)C(=O)[C@@H]1CCCN1C(=O)[C@@H](NC(=O)c1cc2cc(C(F)(F)P(=O)(O)O)ccc2s1)C(C)(C)C` [Compound 73, ((2-(((S)-1-((S)-2-((4-chlorobenzyl)(methyl)carbamoyl)pyrrolidin-1-yl)-3,3-dimethyl-1-oxobutan-2-yl)carbamoyl)benzo[b]thiophen-5-yl)difluoromethyl)phosphonic acid], the Ki [1] is reported as greater than 10 µM and the Ki [2] is reported as 1 to 10 µM.

With `CN(Cc1ccc(Br)cc1)C(=O)[C@@H]1CCCN1C(=O)[C@@H](NC(=O)c1cc2cc(C(F)(F)P(=O)(O)O)ccc2s1)C(C)(C)C` [Compound 74, ((2-(((S)-1-((S)-2-((4-bromobenzyl)(methyl)carbamoyl)pyrrolidin-1-yl)-3,3-dimethyl-1-oxobutan-2-yl)carbamoyl)benzo[b]thiophen-5-yl)difluoromethyl)phosphonic acid] the Ki [1] was greater than 10 µM and the Ki [2] was 1 to 10 µM.

Work on `CC(C)(C)[C@H](NC(=O)c1cc2cc(C(F)(F)P(=O)(O)O)ccc2s1)C(=O)N1CCC[C@H]1C(=O)N(Cc1ccccc1)C1CCCCC1` [Compound 75, ((2-(((S)-1-((S)-2-(benzyl(cyclohexyl)carbamoyl)pyrrolidin-1-yl)-3,3-dimethyl-1-oxobutan-2-yl)carbamoyl)benzo[b]thiophen-5-yl)difluoromethyl)phosphonic acid] yielded a Ki [1] greater than 10 µM and a Ki [2] of 1 to 10 µM.

Work on `CC(C)(C)[C@H](NC(=O)c1cc2cc(C(F)(F)P(=O)(O)O)ccc2s1)C(=O)N1CCC[C@H]1C(=O)N(Cc1ccccc1)C1CCOCC1` [Compound 76, ((2-(((S)-1-((S)-2-(benzyl(tetrahydro-2H-pyran-4-yl)carbamoyl)pyrrolidin-1-yl)-3,3-dimethyl-1-oxobutan-2-yl)carbamoyl)benzo[b]thiophen-5-yl)difluoromethyl)phosphonic acid] yielded a Ki [1] greater than 10 µM and a Ki [2] of 1 to 10 µM.

`CC(C)(C)[C@H](NC(=O)c1cc2cc(C(F)(F)P(=O)(O)O)ccc2s1)C(=O)N1CCC[C@H]1C(=O)N1CC[C@H]2CCN[C@H]2C1` [Compound 78, ((2-(((S)-3,3-dimethyl-1-((S)-2-((3aR,7aR)-octahydro-1H-pyrrolo[2,3-c]pyridine-6-carbonyl)pyrrolidin-1-yl)-1-oxobutan-2-yl)carbamoyl)benzo[b]thiophen-5-yl)difluoromethyl)phosphonic acid] showed a Ki [1] greater than 10 µM and a Ki [2] greater than 10 µM.

Work on `CC(C)(C)[C@H](NC(=O)c1cc2cc(C(F)(F)P(=O)(O)O)ccc2s1)C(=O)N1CCC[C@H]1C(=O)N1CC[C@@H]2CNC[C@@H]21` [Compound 79, ((2-(((S)-3,3-dimethyl-1-((S)-2-((3aR,6aR)-octahydropyrrolo[3,4-b]pyrrole-1-carbonyl)pyrrolidin-1-yl)-1-oxobutan-2-yl)carbamoyl)benzo[b]thiophen-5-yl)difluoromethyl)phosphonic acid] yielded a Ki [1] greater than 10 µM and a Ki [2] greater than 10 µM.

With `CC(C)(C)[C@H](NC(=O)c1cc2cc(C(F)(F)P(=O)(O)O)ccc2s1)C(=O)N1CCC[C@H]1C(=O)N1C[C@H]2CCN[C@H]2C1` [Compound 80, ((2-(((S)-3,3-dimethyl-1-((S)-2-((3aR,6aR)-octahydropyrrolo[3,4-b]pyrrole-5-carbonyl)pyrrolidin-1-yl)-1-oxobutan-2-yl)carbamoyl)benzo[b]thiophen-5-yl)difluoromethyl)phosphonic acid] the Ki [1] was greater than 10 µM and the Ki [2] was greater than 10 µM.

In the case of `CC(=O)N1CC[C@@H]2CCN(C(=O)[C@@H]3CCCN3C(=O)[C@@H](NC(=O)c3cc4cc(C(F)(F)P(=O)(O)O)ccc4s3)C(C)(C)C)C[C@@H]21` [Compound 81, ((2-(((S)-1-((S)-2-((3aS,7aR)-1-acetyloctahydro-1H-pyrrolo[2,3-c]pyridine-6-carbonyl)pyrrolidin-1-yl)-3,3-dimethyl-1-oxobutan-2-yl)carbamoyl)benzo[b]thiophen-5-yl)difluoromethyl)phosphonic acid], the Ki [1] is reported as greater than 10 µM and the Ki [2] is reported as greater than 10 µM.

With `CCCCC(=O)N1CC[C@@H]2CCN(C(=O)[C@@H]3CCCN3C(=O)[C@@H](NC(=O)c3cc4cc(C(F)(F)P(=O)(O)O)ccc4s3)C(C)(C)C)C[C@@H]21` [Compound 82, ((2-(((S)-3,3-dimethyl-1-oxo-1-((S)-2-((3aS,7aR)-1-pentanoyloctahydro-1H-pyrrolo[2,3-c]pyridine-6-carbonyl)pyrrolidin-1-yl)butan-2-yl)carbamoyl)benzo[b]thiophen-5-yl)difluoromethyl)phosphonic acid] the Ki [1] was greater than 10 µM and the Ki [2] was greater than 10 µM.

Work on `CC(C)(C)[C@H](NC(=O)c1cc2cc(C(F)(F)P(=O)(O)O)ccc2s1)C(=O)N1CCC[C@H]1C(=O)N1CC[C@H]2CCN(C(=O)c3ccc(F)cc3)[C@H]2C1` [Compound 83, (difluoro(2-(((S)-1-((S)-2-((3aS,7aR)-1-(4-fluorobenzoyl)octahydro-1H-pyrrolo[2,3-c]pyridine-6-carbonyl)pyrrolidin-1-yl)-3,3-dimethyl-1-oxobutan-2-yl)carbamoyl)benzo[b]thiophen-5-yl)methyl)phosphonic acid] yielded a Ki [1] greater than 10 µM and a Ki [2] greater than 10 µM.

Compound `CC(=O)N1C[C@H]2CCN(C(=O)[C@@H]3CCCN3C(=O)[C@@H](NC(=O)c3cc4cc(C(F)(F)P(=O)(O)O)ccc4s3)C(C)(C)C)[C@H]2C1` [Compound 84, ((2-(((S)-1-((S)-2-((3aR,6aR)-5-acetyloctahydropyrrolo[3,4-b]pyrrole-1-carbonyl)pyrrolidin-1-yl)-3,3-dimethyl-1-oxobutan-2-yl)carbamoyl)benzo[b]thiophen-5-yl)difluoromethyl)phosphonic acid] has a Ki [1] greater than 10 µM and a Ki [2] greater than 10 µM.

`CCCCC(=O)N1C[C@H]2CCN(C(=O)[C@@H]3CCCN3C(=O)[C@@H](NC(=O)c3cc4cc(C(F)(F)P(=O)(O)O)ccc4s3)C(C)(C)C)[C@H]2C1` [Compound 85, ((2-(((S)-3,3-dimethyl-1-oxo-1-((S)-2-((3aR,6aR)-5-pentanoyloctahydropyrrolo[3,4-b]pyrrole-1-carbonyl)pyrrolidin-1-yl)butan-2-yl)carbamoyl)benzo[b]thiophen-5-yl)difluoromethyl)phosphonic acid] showed a Ki [1] greater than 10 µM and a Ki [2] greater than 10 µM.
